Experimental data as given in patent publication US20130316990A1, “USE OF VITAMIN D COMPOUNDS” (DSM IP ASSETS B.V., priority 2003, published 2013).
Marks after values point to notes of the source that are not given here.

Columns and labels:
[1] = test system: growing-fattening pigs; assay: Bone strength (Newton at the breaking point) in growing-fattening pigs fed supplemented diet, Example 1; format: in vivo; settings: for Strength - metacarpals and metatarsals, relative to group A (100) / Strength - metacarpals, relative to group A (100) / Strength - metatarsals, relative to group A (100): unmedicated basal diet = 100; for Strength - metacarpals / Strength - metatarsals: mean ± SD of 8 determinations; for Strength - metacarpals and metatarsals: mean ± SD of 16 determinations
Experimental: Growing-fattening pigs of an initial body weight of 64.8±5.03 kg were fed a diet based on maize, barley and soybean meal ad libitum for 34 days. Groups of 16 animals each were fed as follows:
A: basal diet (unmedicated),
B: basal diet+1,200 IU/kg vitamin D3
C: basal diet+30 μg/kg 25-hydroxy vitamin D3 (Hy.D® 1.25% Beadlet, Roche Vitamins AG, Basel, Switzerland)
D: basal diet+600 IU/kg vitamin D3+15 μg/kg 25-hydroxy vitamin D3 (Hy.D® 1.25% Beadlet, Roche Vitamins AG, Basel, Switzerland).
(§1) The effects of the addition of 25-hydroxy vitamin D3 and vitamin D3 to the diet were determined by measuring the strength (Newton at the breaking point) of the bones of the animals.

[2] = test system: weaner piglets; assay: Bone strength (Newton at the breaking point) in weaner piglets fed supplemented diet, Example 2; format: in vivo; settings: for Strength - femur: mean ± SD of 8 determinations
Experimental: Weaner piglets of an initial body weight of 8.4±1.2 kg were fed a diet based on maize, barley and soybean meal ad libitum for 33 days. Groups of 31 animals each were fed as follows:
A: basal diet+1,000 IU/kg vitamin D3
B: basal diet+2,000 IU/kg vitamin D3
C: basal diet +40 μg/kg 25-hydroxy vitamin D3 (Hy.D® 1.25% Beadlet, Roche Vitamins AG, Basel, Switzerland)
D: basal diet+1,000 IU/kg vitamin D3+20 μg/kg 25-hydroxy vitamin D3 (Hy. D® 1.25% Beadlet, Roche Vitamins AG, Basel, Switzerland).
as §1

[3] = group C: 30 μg/kg 25-hydroxy vitamin D3, 34 days
[4] = group C: basal diet+30 μg/kg 25-hydroxy vitamin D3, 34 days
[5] = group B: 1,200 IU/kg vitamin D3, 34 days
[6] = group B: basal diet+1,200 IU/kg vitamin D3, 34 days

| SMILES | strength of the bones of the growing-finishing pig (in words) ([1]; Example 1, addition to diet, 34 days) | Strength - metacarpals and metatarsals, relative to group A (100) [1, 3] | Strength - metacarpals, relative to group A (100) [1, 3] | Strength - metatarsals, relative to group A (100) [1, 3] | Strength - metacarpals ([1]; group C: basal diet+30 μg/kg 25-hydroxy vitamin D3 (Hy.D 1.25% Beadlet), 34 days) | Strength - metatarsals [1, 4] [Newton] | Strength - metacarpals and metatarsals [1, 4] | Strength - femur, relative to group A (100) ([2]; group C: 40 μg/kg 25-hydroxy vitamin D3, 33 days, 1,000 IU/kg vitamin D3 group = 100) | Strength - femur ([2]; group C: basal diet+40 μg/kg 25-hydroxy vitamin D3 (Hy.D 1.25% Beadlet), 33 days) | Strength - metacarpals and metatarsals, relative to group A (100) [1, 5] | Strength - metacarpals, relative to group A (100) [1, 5] | Strength - metatarsals, relative to group A (100) [1, 5] | Strength - metacarpals [1, 6] | Strength - metatarsals [1, 6] [Newton] | Strength - metacarpals and metatarsals [1, 6] | Strength - femur, relative to group A (100) ([2]; group A: 1,000 IU/kg vitamin D3, 33 days, reference group = 100) | Strength - femur, relative to group A (100) ([2]; group B: 2,000 IU/kg vitamin D3, 33 days, 1,000 IU/kg vitamin D3 group = 100) | Strength - femur ([2]; group B: basal diet+2,000 IU/kg vitamin D3, 33 days) |
| --- | --- | --- | --- | --- | --- | --- | --- | --- | --- | --- | --- | --- | --- | --- | --- | --- | --- | --- |
| C=C1CC[C@H](O)C/C1=C/C=C1\CCC[C@]2(C)[C@@H]([C@H](C)CCCC(C)(C)O)CC[C@@H]12 [25-hydroxy vitamin D3] | clearly improved | (112) | (123) | (103) | 520 ± 72^df Newton | 545 ± 105 | 533 ± 88^ac Newton | (100) | 803 ± 82^a Newton | – | – | – | – | – | – | – | – | – |
| C=C1CC[C@H](O)C/C1=C/C=C1\CCC[C@]2(C)[C@@H]([C@H](C)CCCC(C)C)CC[C@@H]12 [vitamin D3] | – | – | – | – | – | – | – | – | – | (107) | (109) | (105) | 463 ± 48^ce Newton | 553 ± 169 | 508 ± 113^ac Newton | (100) | (109) | 873 ± 123^ab Newton |
